Calls of active or inactive are those of the source. How the calls were made is not given here.
System: rodent carcinogenicity bioassays, tumor incidence
Experiment: CCRIS carcinogenicity studies
Details: Route: ORAL
Procedure, shortened: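 Archive of carcinogenicity, mutagenicity, tumor promotion and tumor inhibition results drawn from journals, NCI reports and other sources, expert-reviewed; covers 1985-2011 and is no longer updated.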

Row | SMILES | carcinogen call (Species: MOUSE, Strain/Sex: NZB/FEMALE, Dose: 0, 1.56 NMOL IN DRINKING WATER 5D/WK FOR 8 WK FOR A TOTAL DOSE OF 0, 6.4 MILLIMOLAR/KG (STUDY DURATION: 400-600 D), Dose: 0, 1.56 NMOL IN DRINKING WATER 5D/WK FOR 8 WK FOR A TOTAL DOSE OF 0, 6.4 MILLIMOLAR/KG (STUDY DURATION: 400-600 D), Tumor Site: Type of Lesion: OROPHARYNX: PAPILLOMA OR CARCINOMA, ESOPHAGUS: PAPILLOMA OR CARCINOMA, STOMACH: SQUAMOUS CELL CARCINOMA, LIVER: HEPATOCE, Tumor Site: Type of Lesion: OROPHARYNX: PAPILLOMA OR CARCINOMA, ESOPHAGUS: PAPILLOMA OR CARCINOMA, STOMACH: SQUAMOUS CELL CARCINOMA, LIVER: HEPATOCE) | carcinogen call (Species: MOUSE, Strain/Sex: NZB/MALE, Dose: 0, 1.56 NMOL IN DRINKING WATER 5D/WK FOR 8 WK FOR A TOTAL DOSE OF 0, 5.4 MILLIMOLAR/KG (STUDY DURATION: 400-600 D), Dose: 0, 1.56 NMOL IN DRINKING WATER 5D/WK FOR 8 WK FOR A TOTAL DOSE OF 0, 5.4 MILLIMOLAR/KG (STUDY DURATION: 400-600 D), Tumor Site: Type of Lesion: ESOPHAGUS: PAPILLOMA OR CARCINOMA, STOMACH: SQUAMOUS CELL CARCINOMA, LIVER: HEPATOCELLULAR TUMOR, LUNG: ALVEOLAR ADENOMA, Tumor Site: Type of Lesion: ESOPHAGUS: PAPILLOMA OR CARCINOMA, STOMACH: SQUAMOUS CELL CARCINOMA, LIVER: HEPATOCELLULAR TUMOR, LUNG: ALVEOLAR ADENOMA) | carcinogen call (Species: MOUSE, Strain/Sex: NZC/FEMALE, Dose: 0, 1.56 NMOL IN DRINKING WATER 5D/WK FOR 8 WK FOR A TOTAL DOSE OF 0, 5.3 MILLIMOLAR/KG (STUDY DURATION: 600-800 D), Dose: 0, 1.56 NMOL IN DRINKING WATER 5D/WK FOR 8 WK FOR A TOTAL DOSE OF 0, 5.3 MILLIMOLAR/KG (STUDY DURATION: 600-800 D), Tumor Site: Type of Lesion: ESOPHAGUS: CARCINOMA OR PAPILLOMA, STOMACH: SQUAMOUS CELL CARCINOMA, LIVER: HEPATOCELLULAR TUMOR, Tumor Site: Type of Lesion: ESOPHAGUS: CARCINOMA OR PAPILLOMA, STOMACH: SQUAMOUS CELL CARCINOMA, LIVER: HEPATOCELLULAR TUMOR) | carcinogen call (Species: MOUSE, Strain/Sex: NZC/MALE, Dose: 0, 1.56 NMOL IN DRINKING WATER 5D/WK FOR 8 WK FOR A TOTAL DOSE OF 0, 6 MILLIMOLAR/KG (STUDY DURATION: 600-800 D), Dose: 0, 1.56 NMOL IN DRINKING WATER 5D/WK FOR 8 WK FOR A TOTAL DOSE OF 0, 6 MILLIMOLAR/KG (STUDY DURATION: 600-800 D), Tumor Site: Type of Lesion: OROPHARYNX: PAPILLOMA OR CARCINOMA, ESOPHAGUS: PAPILLOMA OR CARCINOMA, STOMACH: SQUAMOUS CELL CARCINOMA, LIVER: HEPATOCE, Tumor Site: Type of Lesion: OROPHARYNX: PAPILLOMA OR CARCINOMA, ESOPHAGUS: PAPILLOMA OR CARCINOMA, STOMACH: SQUAMOUS CELL CARCINOMA, LIVER: HEPATOCE) | carcinogen call (Species: MOUSE, Strain/Sex: NZO/FEMALE, Dose: 0, 1.56 NMOL IN DRINKING WATER 5D/WK FOR 8 WK FOR A TOTAL DOSE OF 0: 6.3 MILLIMOLAR/KG (STUDY DURATION: 600-800 D), Tumor Site: Type of Lesion: OROPHARYNX: PAPILLOMA OR CARCINOMA, ESOPHAGUS: PAPILLOMA OR CARCINOMA, STOMACH: SQUAMOUS CELL CARCINOMA, LIVER: HEPATOCE, Tumor Site: Type of Lesion: OROPHARYNX: PAPILLOMA OR CARCINOMA, ESOPHAGUS: PAPILLOMA OR CARCINOMA, STOMACH: SQUAMOUS CELL CARCINOMA, LIVER: HEPATOCE) | carcinogen call (Species: MOUSE, Strain/Sex: NZO/FEMALE, Dose: 0, 50 MG/L IN DRINKING WATER 5 D/WK FOR 32 WK (TOTAL DOSE: 52 MG) (STUDY DURATION: 1.5 YR), Tumor Site: Type of Lesion: OROPHARYNX: SQUAMOUS CELL CARCINOMA, SQUAMOUS CELL ADENOMA, STOMACH: SQUAMOUS CELL CARCINOMA, SQUAMOUS CELL ADENOMA, ESO, Tumor Site: Type of Lesion: OROPHARYNX: SQUAMOUS CELL CARCINOMA, SQUAMOUS CELL ADENOMA, STOMACH: SQUAMOUS CELL CARCINOMA, SQUAMOUS CELL ADENOMA, ESO) | carcinogen call (Species: MOUSE, Strain/Sex: NZO/FEMALE, Dose: 0, 200 MG/L IN DRINKING WATER 5 D/WK FOR 8 WK (TOTAL DOSE: 52 MG) (STUDY DURATION: 2 YR), Tumor Site: Type of Lesion: OROPHARYNX: SQUAMOUS CELL CARCINOMA, SQUAMOUS CELL ADENOMA, STOMACH: SQUAMOUS CELL CARCINOMA, SQUAMOUS CELL ADENOMA, ESO, Tumor Site: Type of Lesion: OROPHARYNX: SQUAMOUS CELL CARCINOMA, SQUAMOUS CELL ADENOMA, STOMACH: SQUAMOUS CELL CARCINOMA, SQUAMOUS CELL ADENOMA, ESO) | carcinogen call (Species: MOUSE, Strain/Sex: NZO/MALE, Dose: 0, 1.56 NMOL IN DRINKING WATER 5D/WK FOR 8 WK FOR A TOTAL DOSE OF 0, 6.1 MILLIMOLAR/KG (STUDY DURATION: 600-800 D), Dose: 0, 1.56 NMOL IN DRINKING WATER 5D/WK FOR 8 WK FOR A TOTAL DOSE OF 0, 6.1 MILLIMOLAR/KG (STUDY DURATION: 600-800 D), Tumor Site: Type of Lesion: OROPHARYNX: PAPILLOMA OR CARCINOMA, ESOPHAGUS: PAPILLOMA OR CARCINOMA, STOMACH: SQUAMOUS CELL CARCINOMA, LIVER: HEPATOCE, Tumor Site: Type of Lesion: OROPHARYNX: PAPILLOMA OR CARCINOMA, ESOPHAGUS: PAPILLOMA OR CARCINOMA, STOMACH: SQUAMOUS CELL CARCINOMA, LIVER: HEPATOCE) | carcinogen call (Species: MOUSE, Strain/Sex: NZO/MALE, Dose: 0, 50 MG/L IN DRINKING WATER 5 D/WK FOR 52 WK (TOTAL DOSE: 52 MG) (STUDY DURATION: 1.5 YR), Tumor Site: Type of Lesion: OROPHARYNX: SQUAMOUS CELL CARCINOMA, SQUAMOUS CELL ADENOMA, STOMACH: SQUAMOUS CELL CARCINOMA, SQUAMOUS CELL ADENOMA, ESO, Tumor Site: Type of Lesion: OROPHARYNX: SQUAMOUS CELL CARCINOMA, SQUAMOUS CELL ADENOMA, STOMACH: SQUAMOUS CELL CARCINOMA, SQUAMOUS CELL ADENOMA, ESO) | carcinogen call (Species: MOUSE, Strain/Sex: NZO/MALE, Dose: 0, 200 MG/L IN DRINKING WATER 5 D/WK FOR 8 WK (TOTAL DOSE: 52 MG) (STUDY DURATION: 2 YR), Tumor Site: Type of Lesion: OROPHARYNX: SQUAMOUS CELL CARCINOMA, SQUAMOUS CELL ADENOMA, STOMACH: SQUAMOUS CELL CARCINOMA, SQUAMOUS CELL ADENOMA, ESO, Tumor Site: Type of Lesion: OROPHARYNX: SQUAMOUS CELL CARCINOMA, SQUAMOUS CELL ADENOMA, STOMACH: SQUAMOUS CELL CARCINOMA, SQUAMOUS CELL ADENOMA, ESO) | carcinogen call (Species: MOUSE, Strain/Sex: NZY/FEMALE, Dose: 0, 1.56 NMOL IN DRINKING WATER 5D/WK FOR 8 WK FOR A TOTAL DOSE OF 0, 5.2 MILLIMOLAR/KG (STUDY DURATION: 600-800 D), Dose: 0, 1.56 NMOL IN DRINKING WATER 5D/WK FOR 8 WK FOR A TOTAL DOSE OF 0, 5.2 MILLIMOLAR/KG (STUDY DURATION: 600-800 D), Tumor Site: Type of Lesion: ESOPHAGUS: PAPILLOMA OR CARCINOMA, STOMACH: SQUAMOUS CELL CARCINOMA) | carcinogen call (Species: MOUSE, Strain/Sex: NZY/MALE, Dose: 0, 1.56 NMOL IN DRINKING WATER 5D/WK FOR 8 WK FOR A TOTAL DOSE OF 0, 5.4 MILLIMOLAR/KG (STUDY DURATION: 600-800 D), Dose: 0, 1.56 NMOL IN DRINKING WATER 5D/WK FOR 8 WK FOR A TOTAL DOSE OF 0, 5.4 MILLIMOLAR/KG (STUDY DURATION: 600-800 D), Tumor Site: Type of Lesion: ESOPHAGUS: PAPILLOMA OR CARCINOMA, STOMACH: SQUAMOUS CELL CARCINOMA, LIVER: HEPATOCELLULAR TUMOR, Tumor Site: Type of Lesion: ESOPHAGUS: PAPILLOMA OR CARCINOMA, STOMACH: SQUAMOUS CELL CARCINOMA, LIVER: HEPATOCELLULAR TUMOR) | carcinogen call (Species: RAT, Strain/Sex: F344/FEMALE, Dose: 0.9 MM (112 MG/L) IN DRINKING WATER 5/WK FOR 28 WK, Tumor Site: Type of Lesion: LIVER: CARCINOMA, SARCOMA, ESOPHAGUS: PAPILLOMA, CARCINOMA) | carcinogen call (Species: RAT, Strain/Sex: WISTAR/FEMALE, Dose: 0, 1.7, 4.1 G/KG/D IN DIET FOR 2 YR (STUDY DURATION: 2 YR), Dose: 0, 1.7, 4.1 G/KG/D IN DIET FOR 2 YR (STUDY DURATION: 2 YR)) | carcinogen call (Species: RAT, Strain/Sex: WISTAR/MALE, Dose: 0, 1.5, 3.7 G/KG/D DIET FOR 2 YR (STUDY DURATION: 2 YR), Dose: 0, 1.5, 3.7 G/KG/D DIET FOR 2 YR (STUDY DURATION: 2 YR))
1 | O=NN1CCCCCC1 | active; positive | active; positive | active; positive | active; positive | active; positive | active; positive | active; positive | active; positive | active; positive | active; positive | active; positive | active; positive | active; positive | – | –
2 | C[C@@H]1O[C@@H](OC[C@H]2O[C@@H](Oc3cc4c(O)cc(O)cc4[o+]c3-c3ccc(O)c(O)c3)[C@H](O)[C@@H](O)[C@@H]2O)[C@H](O)[C@H](O)[C@H]1O | – | – | – | – | – | – | – | – | – | – | – | – | – | inactive; negative | inactive; negative

— PubChem BioAssay AID1259411 (Chemical Carcinogenesis Research Information System (CCRIS), 2018)
